In patent publication US9290496B2, “Purine derivatives” (PFIZER INC., priority 2013, dated 2016):
Where a name gives a salt, the structure may show the parent alone. Read-outs that look alike come from different tables or passages of the source.

Tests used:
Format in all cases: cell-based
EGFR L858R (NCI-H3255) = molecular target: T1, EGFR L858R (NCI-H3255) (Homo sapiens, UniProt P00533, L858R); test: pEGFR Y1068 ELISA assay, NCI-H3255 cells
T1 construct: detects endogenous levels of phospho-EGF Receptor (Tyr1068) protein; host or cells: NCI-H3255
Method: (§1) The PathScan® Phospho-EGF Receptor (Tyr1068) Sandwich ELISA Kit is a solid phase sandwich enzyme-linked immunosorbent assay (ELISA) that detects endogenous levels of phospho-EGF Receptor (Tyr1068) protein. […] NCI-H3255 cells were licensed from NCI. […] All cells were cultured according to ATCC recommendations. A549, NCI-H1975, PC9, and NCI-H3255 cells were grown in RPMI media (Invitrogen, Carlsbad, Calif.) supplemented with 10% FBS (Sigma, St Louis, Mo.), and with 1% Penn/Strep (Invitrogen).
(§2) Each compound was prepared as a DMSO stock solution (10 mM). Compounds were tested in duplicate on each plate, with an 11-point serial dilution curve (1:3 dilution). Compound treatment (50 μL) was added from the compound dilution plate to the cell plate. […] Plates were then incubated for 2 hr at 37° C., 5% CO2. […] The wash was then flicked off and ice-cold lysis buffer was added to the cells (50 μL/well). The plate was shaken for 20-30 min at 4° C. to completely lyse the cells. Sample diluent (50 μL/well) was added to the ELISA plate, and the lysate (50 μL) was diluted into the sample diluent in each well of the ELISA plate. Plates were sealed and incubated overnight at 4° C. with shaking. The next day, wells were washed four times with 1× Wash Buffer; plates were taped on lint-free paper after the final wash prior to adding Add Detection Antibody (green, 100 μL/well) to each well and incubating for 1 hr at 37° C. After incubation, wells were washed as described. HRP-Linked secondary antibody (red, 100 μL/well) was added to each well and incubated for 30 min at 37° C. After incubation, the wells were washed as described. TMB Substrate (100 μL/well) was added to each well and the plate incubated for 10 min at 37° C. or 30 min at rt maximum. Stop Solution (100 μL/well) was added to each well at the end of the incubation and plates were shaken gently for a few seconds. […] Data were analyzed using a four-parameter fit in Microsoft Excel.

EGFR del/T790M (PC9-DRH) = molecular target: T2, EGFR del/T790M (PC9-DRH) (Homo sapiens, UniProt P00533, DEL746-750/T790M); test: pEGFR Y1068 ELISA assay, PC9-DRH cells; details: inhibition of phosphorylation of EGFR at Tyr1068; PC9-DRH cells (dacomitinib resistant); 2 hr compound incubation
T2 construct: detects endogenous levels of phospho-EGF Receptor (Tyr1068) protein; endogenous in cells; host or cells: PC9-DRH (dacomitinib-resistant derivative of PC9, generated in house)
Method: as §1, §2

EGFR del (PC9) = molecular target: T3, EGFR del (PC9) (Homo sapiens, UniProt P00533, DEL746-750); test: pEGFR Y1068 ELISA assay, PC9 cells; details: inhibition of phosphorylation of EGFR at Tyr1068; PC9 NSCLC cells; 2 hr compound incubation
T3 construct: detects endogenous levels of phospho-EGF Receptor (Tyr1068) protein; host or cells: PC9
Method: as §1, §2

[1] = molecular target: T4, EGFR L858R+T790M, endogenous (NCI-H1975) (Homo sapiens, UniProt P00533, L858R/T790M); test: pEGFR Y1068 ELISA assay, NCI-H1975 cells; details: inhibition of phosphorylation of EGFR at Tyr1068; NCI-H1975 NSCLC cells; 2 hr compound incubation
T4 construct: NCI-H1975 (EGFR L858R+T790M, endogenous); host or cells: NCI-H1975

[2] = molecular target: T5, EGFR wildtype, endogenous (A549) (Homo sapiens, UniProt P00533); test: pEGFR Y1068 ELISA assay, A549 cells; details: inhibition of phosphorylation of EGFR at Tyr1068; A549 NSCLC cells; 2 hr compound incubation, then stimulated 10 min with EGF (40 ng/mL)
T5 construct: A549 (EGFR wildtype, endogenous); host or cells: A549 (stimulated with EGF)

[3] = inhibition of phosphorylation of EGFR at Tyr1068, NCI-H3255 NSCLC cells, 2 hr compound incubation

T4 sequence (P00533 25-1210 T790M/L858R): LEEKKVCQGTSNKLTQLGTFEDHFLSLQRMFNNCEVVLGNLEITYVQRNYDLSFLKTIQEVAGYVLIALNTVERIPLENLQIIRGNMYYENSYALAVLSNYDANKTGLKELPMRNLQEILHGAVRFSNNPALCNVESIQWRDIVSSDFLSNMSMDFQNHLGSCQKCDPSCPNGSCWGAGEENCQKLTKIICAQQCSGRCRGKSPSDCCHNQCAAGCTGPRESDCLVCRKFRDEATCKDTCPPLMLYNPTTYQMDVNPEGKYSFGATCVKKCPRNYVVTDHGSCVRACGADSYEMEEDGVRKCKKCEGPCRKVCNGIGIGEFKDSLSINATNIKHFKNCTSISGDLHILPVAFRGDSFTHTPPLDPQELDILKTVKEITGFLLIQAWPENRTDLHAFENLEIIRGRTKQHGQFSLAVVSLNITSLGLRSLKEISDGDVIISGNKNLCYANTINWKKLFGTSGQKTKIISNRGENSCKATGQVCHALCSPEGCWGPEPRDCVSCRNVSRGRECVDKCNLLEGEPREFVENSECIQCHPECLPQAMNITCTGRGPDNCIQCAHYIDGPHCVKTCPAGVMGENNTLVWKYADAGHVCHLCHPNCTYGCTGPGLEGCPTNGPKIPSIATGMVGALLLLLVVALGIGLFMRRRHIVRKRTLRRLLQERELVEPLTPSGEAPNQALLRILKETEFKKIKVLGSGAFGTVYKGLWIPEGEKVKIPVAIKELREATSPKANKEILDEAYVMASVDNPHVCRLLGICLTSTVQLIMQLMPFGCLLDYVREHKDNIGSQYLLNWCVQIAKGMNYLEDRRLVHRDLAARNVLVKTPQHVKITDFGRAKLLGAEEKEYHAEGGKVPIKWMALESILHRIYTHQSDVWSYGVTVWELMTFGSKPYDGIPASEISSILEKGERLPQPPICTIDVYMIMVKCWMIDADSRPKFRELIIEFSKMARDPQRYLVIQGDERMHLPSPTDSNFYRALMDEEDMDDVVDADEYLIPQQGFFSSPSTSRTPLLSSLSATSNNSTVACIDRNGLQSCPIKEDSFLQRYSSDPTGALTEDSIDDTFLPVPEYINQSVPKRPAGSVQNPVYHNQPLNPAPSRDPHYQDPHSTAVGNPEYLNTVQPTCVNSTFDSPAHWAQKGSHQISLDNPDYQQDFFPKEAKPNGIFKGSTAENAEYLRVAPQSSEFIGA
T3 sequence (P00533 with tags, fused parts or gaps DEL746-750): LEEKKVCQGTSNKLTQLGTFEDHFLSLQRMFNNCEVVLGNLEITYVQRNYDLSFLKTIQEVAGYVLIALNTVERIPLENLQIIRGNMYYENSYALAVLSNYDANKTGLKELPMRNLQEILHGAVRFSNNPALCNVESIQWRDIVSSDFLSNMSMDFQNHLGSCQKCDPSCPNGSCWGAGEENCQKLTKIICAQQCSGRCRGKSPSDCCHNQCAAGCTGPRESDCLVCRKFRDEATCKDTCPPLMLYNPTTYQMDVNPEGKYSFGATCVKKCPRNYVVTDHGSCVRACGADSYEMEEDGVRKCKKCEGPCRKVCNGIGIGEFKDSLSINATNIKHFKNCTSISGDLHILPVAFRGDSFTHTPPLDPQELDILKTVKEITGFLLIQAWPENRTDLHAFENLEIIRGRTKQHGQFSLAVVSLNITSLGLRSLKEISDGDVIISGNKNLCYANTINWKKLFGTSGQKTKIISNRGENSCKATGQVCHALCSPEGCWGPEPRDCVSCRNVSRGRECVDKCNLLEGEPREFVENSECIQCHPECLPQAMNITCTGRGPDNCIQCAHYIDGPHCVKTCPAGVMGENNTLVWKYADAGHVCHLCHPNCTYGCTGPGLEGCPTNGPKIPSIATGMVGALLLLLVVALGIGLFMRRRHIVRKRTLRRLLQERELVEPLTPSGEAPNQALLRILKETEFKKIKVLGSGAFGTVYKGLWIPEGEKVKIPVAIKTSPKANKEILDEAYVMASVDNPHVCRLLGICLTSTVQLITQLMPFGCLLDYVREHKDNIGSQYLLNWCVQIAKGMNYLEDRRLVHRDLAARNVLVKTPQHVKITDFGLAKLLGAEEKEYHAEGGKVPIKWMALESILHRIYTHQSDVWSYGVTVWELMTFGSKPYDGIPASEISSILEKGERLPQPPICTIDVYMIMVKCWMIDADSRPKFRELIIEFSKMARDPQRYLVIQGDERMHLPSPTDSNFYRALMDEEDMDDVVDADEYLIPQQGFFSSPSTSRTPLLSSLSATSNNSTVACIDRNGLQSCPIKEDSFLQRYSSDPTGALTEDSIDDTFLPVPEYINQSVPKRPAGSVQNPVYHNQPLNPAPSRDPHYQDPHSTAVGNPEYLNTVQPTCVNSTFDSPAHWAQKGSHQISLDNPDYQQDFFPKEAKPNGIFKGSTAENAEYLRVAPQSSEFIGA
T1 sequence (P00533 25-1210 L858R): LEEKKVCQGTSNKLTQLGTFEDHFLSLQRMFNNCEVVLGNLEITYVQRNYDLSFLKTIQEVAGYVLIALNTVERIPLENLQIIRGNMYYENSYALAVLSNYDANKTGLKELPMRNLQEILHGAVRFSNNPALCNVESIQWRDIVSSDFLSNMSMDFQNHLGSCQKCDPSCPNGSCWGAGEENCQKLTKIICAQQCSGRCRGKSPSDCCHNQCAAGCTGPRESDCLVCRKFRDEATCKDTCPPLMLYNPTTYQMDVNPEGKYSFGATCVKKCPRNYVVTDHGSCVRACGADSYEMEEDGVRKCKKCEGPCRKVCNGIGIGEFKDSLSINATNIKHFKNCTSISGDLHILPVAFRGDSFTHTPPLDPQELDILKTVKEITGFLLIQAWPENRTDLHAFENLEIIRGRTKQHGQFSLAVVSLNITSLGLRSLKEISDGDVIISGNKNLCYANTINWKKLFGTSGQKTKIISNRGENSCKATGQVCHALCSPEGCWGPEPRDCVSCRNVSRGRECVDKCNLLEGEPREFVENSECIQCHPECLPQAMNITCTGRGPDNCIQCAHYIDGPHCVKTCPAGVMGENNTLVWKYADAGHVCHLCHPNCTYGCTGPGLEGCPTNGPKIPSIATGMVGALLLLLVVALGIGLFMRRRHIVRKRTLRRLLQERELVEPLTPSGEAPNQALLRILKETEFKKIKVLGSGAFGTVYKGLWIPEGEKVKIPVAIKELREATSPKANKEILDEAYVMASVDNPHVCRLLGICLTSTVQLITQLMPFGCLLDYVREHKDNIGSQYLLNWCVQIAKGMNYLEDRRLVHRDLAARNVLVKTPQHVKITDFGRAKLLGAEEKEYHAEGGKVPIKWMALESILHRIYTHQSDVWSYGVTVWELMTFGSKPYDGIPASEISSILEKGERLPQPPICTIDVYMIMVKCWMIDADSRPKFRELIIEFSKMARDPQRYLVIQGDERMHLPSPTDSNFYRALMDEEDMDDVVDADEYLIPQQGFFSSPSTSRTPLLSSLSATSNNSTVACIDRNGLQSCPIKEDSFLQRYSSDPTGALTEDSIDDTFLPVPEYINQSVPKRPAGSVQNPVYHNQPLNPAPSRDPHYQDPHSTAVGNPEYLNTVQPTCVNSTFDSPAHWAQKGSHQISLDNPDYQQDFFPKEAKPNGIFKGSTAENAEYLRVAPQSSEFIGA
T2 sequence (P00533 with tags, fused parts or gaps DEL746-750/T790M): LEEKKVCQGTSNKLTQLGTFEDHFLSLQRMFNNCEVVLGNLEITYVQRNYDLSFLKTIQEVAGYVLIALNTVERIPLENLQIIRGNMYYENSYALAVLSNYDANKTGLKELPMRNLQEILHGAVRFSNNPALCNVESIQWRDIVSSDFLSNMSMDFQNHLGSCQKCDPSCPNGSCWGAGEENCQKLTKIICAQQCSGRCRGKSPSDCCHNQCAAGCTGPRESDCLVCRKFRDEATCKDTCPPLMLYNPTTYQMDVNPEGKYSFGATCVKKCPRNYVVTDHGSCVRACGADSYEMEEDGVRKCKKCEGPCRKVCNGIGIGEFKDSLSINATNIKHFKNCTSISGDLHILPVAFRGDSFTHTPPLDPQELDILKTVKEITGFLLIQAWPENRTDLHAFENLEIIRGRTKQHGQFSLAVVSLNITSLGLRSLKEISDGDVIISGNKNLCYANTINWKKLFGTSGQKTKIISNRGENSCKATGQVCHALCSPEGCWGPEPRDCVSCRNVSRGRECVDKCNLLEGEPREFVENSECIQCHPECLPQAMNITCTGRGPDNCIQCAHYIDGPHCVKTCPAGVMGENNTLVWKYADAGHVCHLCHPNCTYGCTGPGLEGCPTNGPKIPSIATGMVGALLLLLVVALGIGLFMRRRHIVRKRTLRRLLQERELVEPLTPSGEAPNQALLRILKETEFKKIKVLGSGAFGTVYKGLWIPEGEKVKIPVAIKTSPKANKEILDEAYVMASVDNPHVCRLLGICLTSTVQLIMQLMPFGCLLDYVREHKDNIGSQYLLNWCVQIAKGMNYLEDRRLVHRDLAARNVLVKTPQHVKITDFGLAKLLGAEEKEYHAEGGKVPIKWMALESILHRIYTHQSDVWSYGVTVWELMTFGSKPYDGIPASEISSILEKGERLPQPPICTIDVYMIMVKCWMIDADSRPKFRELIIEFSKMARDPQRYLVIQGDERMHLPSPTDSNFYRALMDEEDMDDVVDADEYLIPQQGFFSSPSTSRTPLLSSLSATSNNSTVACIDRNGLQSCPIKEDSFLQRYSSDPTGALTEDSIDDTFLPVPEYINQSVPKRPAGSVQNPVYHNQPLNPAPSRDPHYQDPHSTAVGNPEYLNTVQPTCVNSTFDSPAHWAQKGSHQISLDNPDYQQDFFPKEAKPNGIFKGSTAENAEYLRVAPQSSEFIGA

Row | SMILES | IC50 (EGFR L858R (NCI-H3255)) | IC50 (EGFR del/T790M (PC9-DRH)) | IC50 (EGFR del (PC9)) | IC50 [1] | IC50 [2] | IC50 (EGFR L858R (NCI-H3255); [3])
1 | C=CC(=O)N(C)[C@H]1C[C@H](Oc2nc(Nc3ccc(N4CCN(C)CC4)cc3)c3ncn(C(C)C)c3n2)C1 [Example 29, N-((trans)-3-((9-isopropyl-6-((4-(4-methylpiperazin-1-yl)phenyl)amino)-9H-purin-2-yl)oxy)cyclobutyl)-N-methylacrylamide] | 35 nM | 61 nM | 40 nM | 35 nM | 698 nM | –
2 | C=CC(=O)N[C@@H]1CN(c2nc(Nc3ccc(N4CCN(C)CC4)cc3)c3ncn(C(C)C)c3n2)C[C@H]1OC [Example 62, N-((3R,4R)-1-(9-isopropyl-6-((4-(4-methylpiperazin-1-yl)phenyl)amino)-9H-purin-2-yl)-4-methoxypyrrolidin-3-yl)acrylamide] | 1 nM | – | 3 nM | 6 nM | – | –
3 | C=CC(=O)N[C@@H]1CN(c2nc(Nc3cnn(C)c3)c3ncn(C(C)(C)C)c3n2)CC1F (stereo in doubt) [Example 49, N-((3R,4S)-1-(9-(tert-butyl)-6-((1-methyl-1H-pyrazol-4-yl)amino)-9H-purin-2-yl)-4-fluoropyrrolidin-3-yl)acrylamide] | 3 nM | 2 nM | 8 nM | 21 nM | 787 nM | –
4 | C=CC(=O)N[C@H]1CCN(c2nc(Nc3cnn(C4CCN(C)CC4)c3)c3ncn(C(C)C)c3n2)C1 [Example 41, (S)-N-(1-(9-isopropyl-6-((1-(1-methylpiperidin-4-yl)-1H-pyrazol-4-yl)amino)-9H -purin-2-yl)pyrrolidin-3-yl)acrylamide] | 9 nM | 3 nM | 38 nM | 64 nM | 3040 nM | –
5 | C=CC(=O)N[C@@H]1CN(c2nc(Nc3cn(C)nc3C)c3ncn(C(C)C)c3n2)C[C@H]1F [Example 61, N-((3R,4R)-1-(6-((1,3-dimethyl-1H-pyrazol-4-yl)amino)-9-isopropyl-9H-purin-2-yl) -4-fluoropyrrolidin-3-yl)acrylamide] | – | 2130 nM | 6650 nM | 6140 nM | ≥ 10000 nM | –
6 | C=CC(=O)NC1(C)CN(c2nc(Nc3cnn(C4CCN(C)CC4)c3)c3ncn(C(C)C)c3n2)C1 [Example 39, N-(1-(9-isopropyl-6-((1-(1-methylpiperidin-4-yl)-1H-pyrazol-4-yl)amino)-9H-purin-2-yl)-3-methylazetidin-3-yl)acrylamide] | – | 10 nM | 20 nM | 66 nM | 2850 nM | –
7 | C=CC(=O)N[C@@H]1CN(c2nc(Nc3cn(C4CCN(C)C4)nc3C)c3ncn(C(C)C)c3n2)C[C@H]1F (stereo partly drawn) [Example 55, N-((3R,4R)-4-fluoro-1-(9-isopropyl-6-((3-methyl-1-(1-methylpyrrolidin-3-yl)-1H -pyrazol-4-yl)amino)-9H-purin-2-yl)pyrrolidin-3-yl)acrylamide] | 2 nM | 3 nM | 3 nM | 9 nM | 273 nM | –
8 | C=CC(=O)N[C@H]1CCN(c2nc(Nc3cnn(C)c3)c3ncn(C(C)C)c3n2)C1 [Example 4, (S)-N-(1-(9-isopropyl-6-((1-methyl-1H-pyrazol-4-yl)amino)-9H-purin-2-yl)pyrrolidin-3-yl)acrylamide] | 59 nM | – | 52 nM | 52 nM | 652 nM | –
9 | C=CC(=O)N1C[C@@H]2CN(c3nc(Nc4ccc(N5CCN(C)CC5)cc4)c4ncn(C(C)C)c4n3)C[C@@H]2C1 [Example 21, 1-((cis)-5-(9-isopropyl-6-((4-(4-methylpiperazin-1-yl)phenyl)amino)-9H-purin-2-yl)hexahydropyrrolo[3,4-c]pyrrol-2(1H)-yl)prop-2-en-1-one] | – | 18 nM | 8 nM | 14 nM | 181 nM | 8 nM
10 | C=CC(=O)N[C@H]1CCN(c2nc(Nc3ccc(N4CCN(C)CC4)cc3)c3ncn(CCO)c3n2)C1 [Example 46, (S)-N-(1-(9-(2-hydroxyethyl)-6-((4-(4-methylpiperazin-1-yl)phenyl)amino)-9H -purin-2-yl)pyrrolidin-3-yl)acrylamide] | – | – | 31 nM | 387 nM | 4190 nM | 7 nM
11 | C=CC(=O)NC1(C)CN(c2nc(Nc3cnn(C)c3)c3ncn(C(C)(C)C)c3n2)C1 [Example 8, N-(1-(9-(tert-butyl)-6-((1-methyl-1H-pyrazol-4-yl)amino)-9H-purin-2-yl)-3-methylazetidin-3-yl)acrylamide] | – | 37 nM | – | 97 nM | 4480 nM | –
12 | C=CC(=O)N[C@H]1CCN(c2nc(Nc3cnn(C4CCN(C)C4)c3)c3ncn(C(C)C)c3n2)C1 (stereo partly drawn) [Example 45, N-((3S)-1-(9-isopropyl-6-((1-(1-methylpyrrolidin-3-yl)-1H-pyrazol-4-yl)amino)-9H -purin-2-yl)pyrrolidin-3-yl)acrylamide] | – | 3 nM | 7 nM | 26 nM | 1910 nM | –
13 | C=CC(=O)N[C@@H]1CN(c2nc(Nc3cn(C4CN(C)C4)nc3OC)c3ncn(C)c3n2)C[C@H]1F [Example 5, N-((3R,4R)-4-fluoro-1-(6-((3-methoxy-1-(1-methylazetidin-3-yl)-1H-pyrazol-4-yl)amino)-9-methyl-9H-purin-2-yl)pyrrolidin-3-yl)acrylamide] | – | 8 nM | – | 17 nM | 546 nM | –
14 | C=CC(=O)Nc1cccc(Oc2nc(Nc3cnn(C)c3)c3ncn(C(C)C)c3n2)c1 [Example 3, N-(3-((9-isopropyl-6-((1-methyl-1H-pyrazol-4-yl)amino)-9H-purin-2-yl)oxy)phenyl)acrylamide trifluoroacetate] | – | 8 nM | – | 20 nM | 162 nM | –

Continued, values first:

Row | IC50 (EGFR L858R (NCI-H3255)) | IC50 (EGFR del/T790M (PC9-DRH)) | IC50 (EGFR del (PC9)) | IC50 [1] | IC50 [2] | IC50 (EGFR L858R (NCI-H3255); [3]) | SMILES
15 | 9 nM | 3 nM | 45 nM | 15 nM | 1200 nM | – | C=CC(=O)N[C@@H]1CN(c2nc(Nc3cn(CC(C)O)nc3OC)c3ncn(C(C)C)c3n2)C[C@H]1F (stereo partly drawn) [Example 84, N-((3R,4R)-4-fluoro-1-(6-((1-(2-hydroxypropyl)-3-methoxy-1H-pyrazol-4-yl)amino)-9-isopropyl-9H-purin-2-yl)pyrrolidin-3-yl)acrylamide]
16 | 34 nM | 15 nM | 104 nM | 17 nM | 647 nM | – | C=CC(=O)N[C@@H]1CN(c2nc(Nc3cnn([C@@H]4CCN(C)C4)c3C)c3ncn(C(C)C)c3n2)C[C@H]1F [Example 85, N-((3R,4R)-4-fluoro-1-(9-isopropyl-6-((5-methyl-1-((R)-1-methylpyrrolidin-3-yl) -1H-pyrazol-4-yl)amino)-9H-purin-2-yl)pyrrolidin-3-yl)acrylamide]
17 | – | 1 nM | 6 nM | 6 nM | 194 nM | 2 nM | C=CC(=O)N[C@@H]1CN(c2nc(Nc3cn(CC)nc3OC)c3ncn(C)c3n2)C[C@H]1F [Example 88, N-((3R,4R)-1-(6-((1-ethyl-3-methoxy-1H-pyrazol-4-yl)amino)-9-methyl-9H-purin-2-yl)-4-fluoropyrrolidin-3-yl)acrylamide]
18 | – | 9 nM | 11 nM | 14 nM | 1260 nM | – | C=CC(=O)N[C@@H]1CN(c2nc(Nc3cn(C4CCN(C)C4)nc3C)c3ncn(C(C)C)c3n2)C[C@H]1F (stereo partly drawn) [Example 65, N-((3R,4R)-4-fluoro-1-(9-isopropyl-6-((3-methyl-1-(1-methylpyrrolidin-3-yl)-1H -pyrazol-4-yl)amino)-9H-purin-2-yl)pyrrolidin-3-yl)acrylamide]
19 | 3 nM | 1 nM | 3 nM | 6 nM | 100 nM | – | C=CC(=O)N[C@@H]1CN(c2nc(Nc3cn(C4CCN(C)C4)nc3OC)c3ncn(C)c3n2)C[C@H]1F (stereo partly drawn) [Example 79, N-((3R,4R)-4-fluoro-1-(6-((3-methoxy-1-(1-methylpyrrolidin-3-yl)-1H-pyrazol-4-yl)amino)-9-methyl-9H-purin-2-yl)pyrrolidin-3-yl)acrylamide]
20 | 1 nM | 2 nM | – | 11 nM | 64 nM | – | C=CC(=O)N[C@@H]1CN(c2nc(Nc3cn(C4CCN(C)C4)nc3OC)c3ncn(CC)c3n2)C[C@H]1F (stereo partly drawn) [Example 75, N-((3R,4R)-1-(9-ethyl-6-((3-methoxy-1-(1-methylpyrrolidin-3-yl)-1H-pyrazol-4-yl)amino)-9H-purin-2-yl)-4-fluoropyrrolidin-3-yl)acrylamide]
21 | – | 5 nM | 14 nM | 32 nM | 551 nM | – | C=CC(=O)N[C@@H]1CN(c2nc(Nc3cnn(C)c3)c3ncn(C(C)C)c3n2)C[C@H]1OC [Example 63, N-((3R,4R)-1-(9-isopropyl-6-((1-methyl-1H-pyrazol-4-yl)amino)-9H-purin-2-yl)-4-methoxypyrrolidin-3-yl)acrylamide]
22 | – | 8 nM | – | 8 nM | 127 nM | – | C=CC(=O)N1C[C@H]2CN(c3nc(Nc4ccc(N5CCN(C)CC5)cc4)c4ncn(C(C)C)c4n3)C[C@]2(OC)C1 (single isomer, unassigned) [Example 64]
